Patent US7335669B2, “Use of dihydroquinoline to aid in increasing milk production and feed utilization” (Novus International, Inc., priority 2002, dated 2008)

Key:
cows = assay: Example 1: two-week feeding regimen at four ethoxyquin concentration levels, twenty-four cows; format: in vivo
From the text: Each of twenty-four cows was randomly assigned to a feeding regimen of one of four concentration levels of ethoxyquin (0 ppm, 50 ppm, 100 ppm, and 150 ppm by weight on an as fed basis) for a two-week treatment period. Data were collected before and after the feeding regimen. The results were as follows, wherein the ethoxyquin concentration (“Ethox. Dose”) is presented in ppm by weight, on an as fed basis and “TMR” represents the total mixed ration consumed by the cows in pounds per day: […]

lactating dairy cows = assay: Example 2: switch-over pen trial, ethoxyquin 65 ppm in feed for three weeks, approximately 2400 lactating dairy cows; format: in vivo
From the text: Approximately 2400 lactating dairy cows were divided into two treatment groups of four pens per group. The cows in one of the two groups were fed ethoxyquin (at a concentration of 65 ppm by weight based on the weight of the total feed fed to the cows) for three weeks, with the four pens of the other group serving as controls. For the next two weeks, neither of the groups was fed ethoxyquin. The pens were then switched so that the previous control group was fed ethoxyquin (at a concentration of 65 ppm by weight based on the weight of the total feed fed to the cows) for three weeks. Milk production and feed intake were measured and feed efficiencies were calculated. The following table reports the means and pooled SEM results after correction for pen effects (wherein “Treated” refers to the cows receiving the ethoxyquin): […]

[1] = Detection of ethoxyquin in milk from cattle treated by the method; format: in vivo
From the text: Of course, measurement of chemical levels has limitations. […] In any event, the level of ethoxyquin in the milk produced according to this invention certainly is less than 0.1 ppm by weight.

[2] = about 125 to about 150 ppm by weight on DMI basis in diet of dairy cattle; cited from earlier work
broilers and layers = conditions: cited from earlier work
[3] = poultry and lambs, dietary ethoxyquin; cited from earlier work
[4] = ethoxyquin 50 ppm by weight as fed basis
[5] = ethoxyquin 100 ppm as fed basis
[6] = ethoxyquin 100 ppm by weight as fed basis
[7] = ethoxyquin 150 ppm as fed basis
[8] = ethoxyquin 150 ppm by weight as fed basis
[9] = ethoxyquin 65 ppm by weight of total feed, three weeks, mean after correction for pen effects

CCOc1ccc2c(c1)C(C)=CC(C)(C)N2 [ethoxyquin, 6-ethoxy-1,2-dihydro-2,2,4-trimethylquinoline]
Enhancement of milk production, comparison of concentrations (cows; 50 ppm vs 150 ppm by weight, as fed basis): 50 ppm has yielded greater enhancement of milk production than has 150 ppm | Feed Intake (as fed basis), TMR in First Week (cows; ethoxyquin 50 ppm as fed basis): 91 pounds per day | Milk Production Based on Feed Efficiency, Lbs. Milk / TMR in First Week (cows; ethoxyquin 50 ppm as fed basis): 0.87 lbs. Milk Produced/pounds TMR Intake | Feed Intake (as fed basis), TMR in Second Week (cows; ethoxyquin 50 ppm as fed basis): 91 pounds per day | Milk Production Based on Feed Efficiency, Lbs. Milk / TMR in Second Week (cows; ethoxyquin 50 ppm as fed basis): 0.91 lbs. Milk Produced/pounds TMR Intake | Milk Produced During First Week (cows; [4]): 79 lbs./day | Milk Produced During Second Week (cows; [4]): 82 lbs./day | Feed Intake (as fed basis), TMR in First Week (cows; [5]): 92 pounds per day | Milk Production Based on Feed Efficiency, Lbs. Milk / TMR in First Week (cows; [5]): 0.80 lbs. Milk Produced/pounds TMR Intake | Feed Intake (as fed basis), TMR in Second Week (cows; [5]): 91 pounds per day | Milk Production Based on Feed Efficiency, Lbs. Milk / TMR in Second Week (cows; [5]): 0.79 lbs. Milk Produced/pounds TMR Intake | Milk Produced During First Week (cows; [6]): 74 lbs./day | Milk Produced During Second Week (cows; [6]): 72 lbs./day | Feed Intake (as fed basis), TMR in First Week (cows; [7]): 92 pounds per day | Milk Production Based on Feed Efficiency, Lbs. Milk / TMR in First Week (cows; [7]): 0.76 lbs. Milk Produced/pounds TMR Intake | Feed Intake (as fed basis), TMR in Second Week (cows; [7]): 92 pounds per day | Milk Production Based on Feed Efficiency, Lbs. Milk / TMR in Second Week (cows; [7]): 0.80 lbs. Milk Produced/pounds TMR Intake | Milk Produced During First Week (cows; [8]): 70 lbs./day | Milk Produced During Second Week (cows; [8]): 74 lbs./day | Difference in milk production, treated vs control (lactating dairy cows; ethoxyquin 65 ppm): little difference in milk production | Feed Efficiency As Fed Basis (lactating dairy cows; ethoxyquin 65 ppm by weight of total feed, three weeks, calculated from milk production and feed intake): 0.89 | Feed Intake As Fed Basis (lactating dairy cows; [9]): 93.5 lbs./day | Feed Intake DMI Basis (lactating dairy cows; [9]): 60.3 lbs./day | Milk Production (lactating dairy cows; [9]): 83.4 lbs./day | Improvement in feed efficiency (pounds of milk produced per pounds of TMR intake) (lactating dairy cows; ethoxyquin 65 ppm vs control, printed as on a dry matter basis): 4.7% | Ethoxyquin detected in milk ([1]; milk from cattle treated by the method of the invention): no ethoxyquin has been detected | Level of ethoxyquin in the milk ([1]; milk produced according to the invention): less than 0.1 ppm by weight | Ethoxyquin residue in milk [2]: appearance of ethoxyquin in the fat of the resulting milk | Effectiveness relative to alpha-tocopherol acetate (broilers and layers; broiler study, 150 ppm ethoxyquin in feed): as effective as about 15 ppm alpha-tocopherol acetate | Lipid oxidation in muscle tissues (broilers and layers; dietary ethoxyquin, broilers 75 to 150 ppm, layers 500 ppm in feed): prevent lipid oxidation in muscle tissues in broilers and layers | Ethoxyquin in muscle tissue [3]: detected in the muscle tissue of poultry and lambs
